# The supplement of paper PMC10307832
# Legend:
# Experiment in all cases: relative viability (nuclei count vs DMSO), 5 days (fraction); higher = more cells survive
# [1] = test system: NCI-H1993
# Procedure, shortened: (§1)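 After 5 days of treatment, lung cancer cells in 1536-well plates were fixed and stained in a single step (final 0.05% Triton X-100, 1% formaldehyde, 1 ug/ml Hoechst) and their nuclei counted on 4× images. Treatment had been applied by pin tool the day after seeding as one drug alone or as a fixed anchor-drug dose with five library-drug doses (not always all listed) in √10 steps. Relative viability is the nuclei count of treated wells divided by that of vehicle wells, and values are medians of duplicate plates.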
# [2] = test system: NCI-H2405
# Procedure, shortened: as §1
# [3] = test system: NCI-H1395
# Procedure, shortened: as §1
# [4] = test system: NCI-H2087
# Procedure, shortened: as §1
# [5] = test system: NCI-H1792
# Procedure, shortened: as §1
# [6] = test system: NCI-H2342
# Procedure, shortened: as §1
# [7] = test system: LOU-NH91
# Procedure, shortened: as §1
# [8] = test system: HARA
# Procedure, shortened: as §1
# [9] = test system: BEN
# Procedure, shortened: as §1
# [10] = test system: HCC-827
# Procedure, shortened: as §1
# [11] = test system: EKVX
# Procedure, shortened: as §1
# [12] = test system: NCI-H1355
# Procedure, shortened: as §1
# [13] = test system: NCI-H522
# Procedure, shortened: as §1
# [14] = test system: NCI-H1437
# Procedure, shortened: as §1
# [15] = test system: HCC-366
# Procedure, shortened: as §1
# [16] = test system: NCI-H1734
# Procedure, shortened: as §1
# [17] = test system: NCI-H647
# Procedure, shortened: as §1
# [18] = test system: NCI-H2170
# Procedure, shortened: as §1
structure (smiles),measurement,setting,value
Cc1sc2c(c1C)C(c1ccc(Cl)cc1)=N[C@@H](CC(=O)OC(C)(C)C)c1nnc(C)n1-2 [JQ1] + NC(=O)Nc1cc(-c2cccc(F)c2)sc1C(=O)N[C@H]1CCCNC1 [AZD7762] (partner 0.2 µM),relative viability,[1]; first compound 0.04 µM,0.849
same,relative viability,[1]; first compound 0.1265 µM,0.779
same,relative viability,[1]; first compound 0.4 µM,0.796
same,relative viability,[1]; first compound 1.265 µM,0.53
same,relative viability,[1]; first compound 4 µM,0.488
same,relative viability,[2]; first compound 0.04 µM,0.712
same,relative viability,[2]; first compound 0.4 µM,0.646
same,relative viability,[2]; first compound 1.265 µM,0.586
same,relative viability,[2]; first compound 4 µM,0.365
same,relative viability,[3]; first compound 0.04 µM,0.384
same,relative viability,[3]; first compound 0.1265 µM,0.379
same,relative viability,[3]; first compound 0.4 µM,0.372
same,relative viability,[3]; first compound 1.265 µM,0.348
same,relative viability,[3]; first compound 4 µM,0.361
same,relative viability,[4]; first compound 0.04 µM,1.34
same,relative viability,[4]; first compound 0.1265 µM,1.29
same,relative viability,[4]; first compound 0.4 µM,1.29
same,relative viability,[4]; first compound 1.265 µM,0.604
same,relative viability,[4]; first compound 4 µM,0.383
same,relative viability,[5]; first compound 0.04 µM,0.62
same,relative viability,[5]; first compound 0.1265 µM,0.46
same,relative viability,[5]; first compound 0.4 µM,0.38
same,relative viability,[5]; first compound 1.265 µM,0.14
same,relative viability,[5]; first compound 4 µM,0.0872
same,relative viability,[6]; first compound 0.04 µM,0.544
same,relative viability,[6]; first compound 0.1265 µM,0.475
same,relative viability,[6]; first compound 0.4 µM,0.588
same,relative viability,[6]; first compound 1.265 µM,0.465
same,relative viability,[6]; first compound 4 µM,0.4
same,relative viability,[7]; first compound 0.04 µM,0.759
same,relative viability,[7]; first compound 0.1265 µM,0.609
same,relative viability,[7]; first compound 0.4 µM,0.664
same,relative viability,[7]; first compound 1.265 µM,0.379
same,relative viability,[7]; first compound 4 µM,0.407
same,relative viability,[8]; first compound 0.04 µM,0.303
same,relative viability,[8]; first compound 0.1265 µM,0.431
same,relative viability,[8]; first compound 0.4 µM,0.236
same,relative viability,[8]; first compound 1.265 µM,0.155
same,relative viability,[8]; first compound 4 µM,0.242
same,relative viability,[9]; first compound 0.04 µM,0.718
same,relative viability,[9]; first compound 0.1265 µM,0.585
same,relative viability,[9]; first compound 0.4 µM,0.644
same,relative viability,[9]; first compound 1.265 µM,0.468
same,relative viability,[9]; first compound 4 µM,0.372
same,relative viability,[10]; first compound 0.04 µM,0.292
same,relative viability,[10]; first compound 0.1265 µM,0.266
same,relative viability,[10]; first compound 1.265 µM,0.233
same,relative viability,[10]; first compound 4 µM,0.277
same,relative viability,[11]; first compound 0.04 µM,0.721
same,relative viability,[11]; first compound 0.1265 µM,0.794
same,relative viability,[11]; first compound 0.4 µM,1.03
same,relative viability,[11]; first compound 1.265 µM,0.793
same,relative viability,[11]; first compound 4 µM,0.455
same,relative viability,[12]; first compound 0.04 µM,0.747
same,relative viability,[12]; first compound 0.1265 µM,0.769
same,relative viability,[12]; first compound 0.4 µM,0.705
same,relative viability,[12]; first compound 1.265 µM,0.554
same,relative viability,[12]; first compound 4 µM,0.406
same,relative viability,[13]; first compound 0.04 µM,0.974
same,relative viability,[13]; first compound 0.1265 µM,0.685
same,relative viability,[13]; first compound 0.4 µM,0.774
same,relative viability,[13]; first compound 1.265 µM,0.52
same,relative viability,[13]; first compound 4 µM,0.397
same,relative viability,[14]; first compound 0.04 µM,1.11
same,relative viability,[14]; first compound 0.1265 µM,0.979
same,relative viability,[14]; first compound 0.4 µM,0.847
same,relative viability,[14]; first compound 1.265 µM,0.657
same,relative viability,[14]; first compound 4 µM,0.445
same,relative viability,[15]; first compound 0.04 µM,0.305
same,relative viability,[15]; first compound 0.4 µM,0.23
same,relative viability,[15]; first compound 1.265 µM,0.146
same,relative viability,[15]; first compound 4 µM,0.0976
same,relative viability,[16]; first compound 0.04 µM,0.544
same,relative viability,[16]; first compound 0.1265 µM,0.53
same,relative viability,[16]; first compound 0.4 µM,0.47
same,relative viability,[16]; first compound 1.265 µM,0.281
same,relative viability,[16]; first compound 4 µM,0.273
same,relative viability,[17]; first compound 0.04 µM,0.472
same,relative viability,[17]; first compound 0.1265 µM,0.293
same,relative viability,[17]; first compound 0.4 µM,0.25
same,relative viability,[17]; first compound 1.265 µM,0.103
same,relative viability,[17]; first compound 4 µM,0.0446
same,relative viability,[18]; first compound 0.04 µM,0.785
same,relative viability,[18]; first compound 0.1265 µM,0.564
same,relative viability,[18]; first compound 0.4 µM,0.739
same,relative viability,[18]; first compound 1.265 µM,0.431
same,relative viability,[18]; first compound 4 µM,0.379
